Consider ten compounds from US7642362B2, “Compounds as semaphorin inhibitors” (Dainippon Sumitomo Pharma Co., Ltd., priority 2002, dated 2010).

Broadly, the IC50 is the midpoint of a concentration-inhibition curve. Low readings indicate greater potency, high ones weaker potency.

Data set [1] in a line: Solubility of the purified compounds in solvents. The data set is classed as physicochemical.
In data set [2] the target is T1, mouse semaphorin 3A (Sema3A) (Mus musculus, UniProt O08665).
T1 sequence (O08665 21-772): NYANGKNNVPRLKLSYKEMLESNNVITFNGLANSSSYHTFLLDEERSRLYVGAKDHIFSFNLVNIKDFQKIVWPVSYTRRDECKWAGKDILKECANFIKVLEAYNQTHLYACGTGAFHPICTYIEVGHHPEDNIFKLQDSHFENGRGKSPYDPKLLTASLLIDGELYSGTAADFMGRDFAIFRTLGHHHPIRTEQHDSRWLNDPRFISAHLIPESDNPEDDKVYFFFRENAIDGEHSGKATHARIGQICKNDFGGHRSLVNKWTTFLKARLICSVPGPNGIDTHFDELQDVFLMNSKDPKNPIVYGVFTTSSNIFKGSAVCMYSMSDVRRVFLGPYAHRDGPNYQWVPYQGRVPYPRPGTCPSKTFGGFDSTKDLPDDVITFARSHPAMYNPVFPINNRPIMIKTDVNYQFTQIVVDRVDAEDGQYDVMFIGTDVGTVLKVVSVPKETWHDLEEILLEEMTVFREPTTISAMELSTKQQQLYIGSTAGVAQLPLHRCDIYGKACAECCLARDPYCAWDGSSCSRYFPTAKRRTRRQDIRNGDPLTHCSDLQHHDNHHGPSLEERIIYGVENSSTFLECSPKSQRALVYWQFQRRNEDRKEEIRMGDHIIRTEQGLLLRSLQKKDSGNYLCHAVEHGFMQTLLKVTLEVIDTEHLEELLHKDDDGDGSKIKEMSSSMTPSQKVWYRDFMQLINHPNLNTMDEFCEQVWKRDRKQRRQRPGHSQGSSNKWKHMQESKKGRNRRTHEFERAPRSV
Put plainly: Suppressing action on the growth cone collapse activity of Sema3A in chick dorsal root ganglion culture. Format: cell-based. Conditions: E7 chick embryo dorsal root ganglions; compound added 1 hour before 3 units/ml mouse Sema3A; growth cone collapse rate after another 1 hour. The text has this: The growth cone collapse activity of semaphorin described above means an activity to make growth cones disappear. This activity is observed after performing the following steps: cultivating nerve cells (generally tissue explants of ganglions) for a given period of time in vitro until the extended neurites as well as the growth cones at the edge of said neurites can be observed; and then adding thereto a given concentration (e.g. about 3 unit/ml; 1 unit/ml is defined as a semaphorin concentration in which 50% of the growth cones are collapsed) of semaphorin and cultivating for another given period of time (e.g. one hour). In order to get the extended neurites and the growth cones at the edge of said neurites ready for the observation, the nerve cells are generally cultivated for 10 to 20 hours in vitro, which duration can be altered according to a nerve variant and culture conditions. When the growth cone collapse caused by semaphorin is suppressed by, for example, the addition of a compound to this experimental system at an appropriate concentration about one hour prior to the addition of semaphorin, then such compound is regarded as a semaphorin inhibitor, especially as a compound with suppressing action on the growth cone collapse activity of semaphorin.
A 96-well plate (Sumitomo Bakelite Co., Ltd.) pre-coated with polylysine was further coated with laminine (20 μg/ml of laminine, for 1 hour at room temperature). Each well was added with 100 μl of medium (F12 medium containing 10% bovine fetal serum, 20 ng/ml of NGF, 100 units/ml of penicillin and 100 μg/ml of streptomycin) which medium was then inoculated with dorsal root nerve ganglions excised from E7 (Embryonic day 7) chick embryo and cultured for 16 to 20 hours under 5% CO2 at 37° C. Subsequently, the object compounds were added to media at various concentrations and 3 units/ml of mouse semaphorin 3A (Sema3A) was added after cultivating for 1 hour. The cultures were further incubated for another 1 hour. Glutaraldehyde was quickly added therein after said 1 hour to make the final concentration 1%. The cultures were then left for 15 minutes at room temperature so that the tissue sections were fixed, and collapse rates of the growth cones were microscopically determined. IC50 values was defined as a concentration of each compound at which concentration the collapse rate C equals to(A+B)/2, wherein (A) % is the collapse rate of growth cone of the negative control group (neither compounds nor Sema3A was added); (B) % is the collapse rate of growth cone of the positive control group (compounds were not added but Sema3A was added); and (C) % is the collapse rate of growth cone of the test group (each one compound and Sema3A were added).

A further data set concerns semaphorin. Put plainly: Semaphorin inhibitory activity (earlier finding of the inventors).
A further data set concerns nerve regeneration. Nature of the data set: Nerve regeneration in vivo (earlier finding of the inventors).

As for `CC(=O)C1=C2c3cc(O)c(O)cc3OCC2(C(=O)/C=C(/C)O)Cc2c1oc1cc(O)c(O)c(C(=O)O)c1c2=O` (centres unmarked) [SPF-3059-40], in data set [1], the “Solubility in DMSO” value is “soluble”, the Solubility in hexane result is listed as “Insoluble”, the Solubility in methanol result is listed as “soluble” and the Solubility in water result is given as “Insoluble”. For the same compound, the half-maximal inhibitory concentration (IC50) in data set [2] was 0.233 µM.
As for `CC(=O)c1c2c(c3ccc4c(=O)c5c(C(=O)O)c(O)c(O)cc5oc4c3c1C)C(=O)C1(CC2)COc2cc(O)c(O)c(C(=O)O)c2C1=O` (centres unmarked) [SPF-3059-38], in data set [1], the “Solubility in DMSO” value is “soluble”, the Solubility in hexane entry is recorded as “Insoluble”, the Solubility in methanol entry is reported as “soluble” and the Solubility in water entry is “Insoluble”. For the same compound, the IC50 in data set [2] was 0.0199 µM.
`CC(=O)c1cc(-c2c(C(C)=O)cc3c(=O)c4c(C(=O)O)c(O)c(O)cc4oc3c2C(C)=O)cc(C(=O)c2c(O)cc(O)c(O)c2C(=O)O)c1O` [SPF-3059-23]: in data set [1], the “Solubility in DMSO” value is “soluble”, the Solubility in hexane entry is given as “Insoluble”, the Solubility in methanol result is “soluble” and the Solubility in water result was “Insoluble”. This compound also had a half-inhibitory concentration (IC50) in data set [2] of 0.728 µM.
As for `CC12Cc3oc4cc(O)c(O)c(C(=O)O)c4c(=O)c3C(O1)C1C(=O)C3=C(OC1(C)O2)c1c(cc(O)c(O)c1C(=O)O)OC3` (centres unmarked) [SPF-3059-19], in data set [1], the “Solubility in DMSO” value was “soluble”, the Solubility in hexane result was “Insoluble”, the Solubility in methanol result is given as “soluble” and the Solubility in water entry is listed as “Insoluble”. In addition, in data set [2], the midpoint of inhibition, the IC50, lay at 0.838 µM.
Turning to `Cc1cc(=O)c2c(o1)-c1c(c3c(c(O)c1C(=O)O)OC1(C)Cc4oc5cc(O)c(O)c(C(=O)O)c5c(=O)c4C3O1)OC2` (centres unmarked) [SPF-3059-8], in data set [1], the “Solubility in DMSO” value is “soluble”, the Solubility in hexane result is reported as “Insoluble”, the Solubility in methanol entry is “soluble” and the Solubility in water entry was “Insoluble”. Further, inhibition in data set [2] was half-maximal at 3.46 µM (IC50).
Consider `CC(=O)c1c(C)c(C(=O)c2coc3cc(O)c(O)c(C(=O)O)c3c2=O)cc2c(=O)c3c(O)cc(O)c(O)c3oc12` [SPF-3059-22], for which, in data set [1], the “Solubility in DMSO” value is on record as “soluble”, the Solubility in hexane result is on record as “Insoluble”, the Solubility in methanol entry is given as “soluble” and the Solubility in water result is on record as “Insoluble”. Besides, inhibition in data set [2] was half-maximal at 0.912 µM (IC50).
Consider `CC1=Cc2oc3cc(O)c(O)c(C(=O)O)c3c(=O)c2C(c2c(C)oc3c(c2=O)COc2cc(O)c(O)c(C(=O)O)c2-3)O1` (centres unmarked) [SPF-3059-17], for which, in data set [1], the “Solubility in DMSO” value is “soluble”, the Solubility in hexane entry was “Insoluble”, the Solubility in methanol result was “soluble” and the Solubility in water entry is “Insoluble”. The compound further gave a 50% inhibitory concentration (IC50) in data set [2] of 0.225 µM.
For `CC(=O)c1c(C)c(C(=O)C2COc3cc(O)c(O)c(C(=O)O)c3C2=O)cc2c(=O)c3c(C(=O)O)c(O)c(O)cc3oc12` (centres unmarked) [SPF-3059-1], in the data set on semaphorin, the Semaphorin inhibitory activity entry is recorded as “have semaphorin inhibitory activity”. Besides, in the data set with nerve regeneration, the “Promotion of nerve regeneration” value was “promote nerve regeneration in vivo”.
Consider `CC(=O)[C@]12c3c(cc(O)c(O)c3C(=O)O)OC[C@]13Cc1c(oc4cc(O)c(O)c(C(=O)O)c4c1=O)[C@H]2C(C)=C(O)C3=O` (relative stereo) [SPF-3059-16], for which, in data set [1], the “Solubility in DMSO” value is recorded as “soluble”, the Solubility in hexane entry is on record as “Insoluble”, the Solubility in methanol entry is “soluble” and the Solubility in water result is “Insoluble”. The midpoint of inhibition in data set [2], the IC50, lay at 0.861 µM.
In the case of `CC(=O)c1c(C)c(-c2oc3cc(O)c(O)c(C(=O)O)c3c(=O)c2Cc2c(C)oc3c(c2=O)COc2cc(O)c(O)c(C(=O)O)c2-3)cc2c(=O)c3cc(O)c(O)cc3oc12` [SPF-3059-42], in data set [1], the “Solubility in DMSO” value is listed as “soluble”, the Solubility in hexane result is reported as “Insoluble”, the Solubility in methanol entry is “soluble” and the Solubility in water result is listed as “Insoluble”. The compound further showed an IC50 in data set [2] of 0.0781 µM.
